Patent publication EP0275742A1, “5-Hydroxymethyl derivatives of 2-oxazolidinones, their preparation and their therapeutical use” (SYNTHELABO, priority 1986, dated 1988)

How the values were obtained:
[1] = target: T1, MAO-A (Rattus norvegicus, UniProt P21396); experiment: MAO-A inhibition in vitro, rat brain homogenate (protocol of DOSTERT P. et coll.); type: biochemical; settings: 20 min preincubation; [14C] sérotonine 480 µM, KM = 100 µM; whole brain homogenate of male Sprague-Dawley rat, 1 g tissue/16 ml phosphate buffer pH 7,4; Ki calculated from CI 50
T1 construct: un homogénat de cerveau total de rat mâle Sprague-Dawley; from tissue; host or cells: whole brain homogenate of male Sprague-Dawley rat
T1 sequence (P21396 1-526): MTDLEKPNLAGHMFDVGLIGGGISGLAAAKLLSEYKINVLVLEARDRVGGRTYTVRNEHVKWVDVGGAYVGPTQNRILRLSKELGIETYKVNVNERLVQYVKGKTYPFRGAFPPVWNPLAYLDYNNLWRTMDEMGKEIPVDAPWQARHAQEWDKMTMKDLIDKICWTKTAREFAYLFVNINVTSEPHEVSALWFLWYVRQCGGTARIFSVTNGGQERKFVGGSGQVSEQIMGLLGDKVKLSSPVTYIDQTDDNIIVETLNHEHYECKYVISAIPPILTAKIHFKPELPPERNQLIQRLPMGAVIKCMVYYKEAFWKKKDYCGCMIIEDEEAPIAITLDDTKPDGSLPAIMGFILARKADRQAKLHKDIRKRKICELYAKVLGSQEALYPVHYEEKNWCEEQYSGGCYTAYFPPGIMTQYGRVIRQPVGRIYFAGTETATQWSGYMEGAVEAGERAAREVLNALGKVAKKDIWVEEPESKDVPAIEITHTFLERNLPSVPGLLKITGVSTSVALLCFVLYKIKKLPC
Protocol: (§1) Cette activité-a été mise en évidence par mise en oeuvre du protocole décrit par DOSTERT P. et coll. dans J. Pharm. Pharmacol., 1983, 35, 161-165; ce protocole est basé sur des tests enzymatiques menés avec ou sans préincubation notamment à 37° C pendant 20 minutes et il permet de mesurer in vitro l'effet inhibiteur à l'égard de la MAO-A et de la MAO-B du cerveau de rat.
(§2) Le tableau IV ci-après rassemble les constantes d'inhibition Ki(A) et Ki(B) respectivement des formes A et B de la MAO, obtenues pour un certain nombre de composés selon l'invention en suivant le protocole ci-dessus appliqué à un homogénat de cerveau total de rat mâle Sprague-Dawley, à 1 g de tissu/16 ml de tampon phosphate de pH 7,4.

[2] = target: T2, MAO-B (Rattus norvegicus, UniProt P19643); experiment: MAO-B inhibition in vitro, rat brain homogenate (protocol of DOSTERT P. et coll.); type: biochemical; settings: for Ki: 20 min preincubation, [14C] phényléthylamine 12 µM, KM = 6 µM, whole brain homogenate of male Sprague-Dawley rat, 1 g tissue/16 ml phosphate buffer pH 7,4, Ki calculated from CI 50; for Ki (A) / Ki (B): selectivity ratio MAO-A over MAO-B, rat brain homogenate
T2 construct: un homogénat de cerveau total de rat mâle Sprague-Dawley; from tissue; host or cells: whole brain homogenate of male Sprague-Dawley rat
T2 sequence (P19643 1-520): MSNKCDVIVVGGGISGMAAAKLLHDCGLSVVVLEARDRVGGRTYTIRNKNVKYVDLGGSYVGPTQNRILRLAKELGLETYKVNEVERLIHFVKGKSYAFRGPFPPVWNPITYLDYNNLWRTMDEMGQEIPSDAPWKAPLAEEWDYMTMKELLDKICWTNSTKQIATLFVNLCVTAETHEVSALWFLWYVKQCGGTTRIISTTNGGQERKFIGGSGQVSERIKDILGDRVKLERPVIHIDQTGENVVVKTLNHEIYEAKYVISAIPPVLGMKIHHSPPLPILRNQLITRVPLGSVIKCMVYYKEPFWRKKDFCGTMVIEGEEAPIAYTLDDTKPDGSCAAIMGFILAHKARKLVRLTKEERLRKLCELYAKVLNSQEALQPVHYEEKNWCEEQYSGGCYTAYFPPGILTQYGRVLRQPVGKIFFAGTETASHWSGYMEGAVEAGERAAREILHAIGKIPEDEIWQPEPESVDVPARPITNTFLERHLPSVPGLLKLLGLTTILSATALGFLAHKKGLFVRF
Protocol: as §1, §2

Row | Compound | Ki [1] [nM] | Ki [2] [nM] | Ki (A) / Ki (B) [2]
1 | C[C@@H](O)[C@H]1CN(c2ccc(OCC3CCCCC3)cc2)C(=O)O1 [compound 200443] | 10300 | 40 | 259
2 | CC(C)CCOc1ccc(N2C[C@H]([C@@H](C)O)OC2=O)cc1 [compound 200497] | 6000 | 168 | 36
3 | C[C@@H](O)[C@H]1CN(c2ccc(OCc3ccc(F)c(Cl)c3)cc2)C(=O)O1 [compound 200498] | 9000 | 14 | 634
4 | [(chloro-3 benzyloxy)-4 phényl]-3 (hydroxy-1 éthyl)-5 oxazolidinone-2 [compound 340177] | 2260 | 343 | 7

Second part, the compound after the results:

Row | Ki [1] [nM] | Ki [2] [nM] | Ki (A) / Ki (B) [2] | Compound
5 | > 1000 | 1600 | > 0,6 | C[C@H](O)[C@@H]1CN(c2ccc(OCc3cccc(Cl)c3)cc2)C(=O)O1 [compound 300872, [(chloro-3 benzyloxy)-4 phényl]-3 (hydroxy-1 étant)-5 oxazolidinone-2]
6 | > 17200 | 27 | >640 | C[C@@H](O)[C@H]1CN(c2ccc(OCc3cccc(Cl)c3)cc2)C(=O)O1 [compound 300873, [(chloro-3 benzyloxy)-4 phényl)-3 (hydroxy-1 éthyl)-5 oxazolidinone-2]
7 | 476 | 100 | 5 | [(chloro-3 benzyloxy)-4-phenyl]-3 (hydroxy-1 éthyl)-5 oxazolidinone-2 [compound 340176]
